Test results as given in patent US20260207722A1, “COMBINATION FOR TREATMENT OF AUTOIMMUNE DISEASES” (Bonsai Biotherapeutics AB, priority 2023, published 2026).

Tested on: experimental autoimmune myasthenia gravis (EAMG)
Test: EAMG clinical score, rats treated with TOL2 and/or diclofenac (Example 2)
Format: in vivo, rat
Conditions: treatment 40 days after EAMG induction; diclofenac 10 mg/kg ip; TOL2 500 μg iv alone, 250 μg iv in the combination; vs PBS-treated controls; FIG. 3A

## O=C(O)Cc1ccccc1Nc1c(Cl)cccc1Cl [diclofenac]
  EAMG score: did not show any improvement
